Measured values taken from ChEMBL document CHEMBL4507285, “Data for DCP probe MRL-SYKi” (2021).

Key:
[1] = target: Sigma intracellular receptor 2 (Homo sapiens) (UniProt Q5BJF2); conditions: Compound concentration 10.0 uM
[2] = target: Mitogen-activated protein kinase kinase kinase 20 (Homo sapiens) (UniProt Q9NYL2); conditions: Compound concentration 100.0 nM
[3] = target: Serine/threonine-protein kinase ULK1 (Homo sapiens) (UniProt O75385); conditions: Compound concentration 100.0 nM
[4] = target: Ephrin type-A receptor 1 (Homo sapiens) (UniProt P21709); conditions: Compound concentration 100.0 nM
Ephrin type-A receptor 1 (Homo sapiens), sequence (P21709 whole entry): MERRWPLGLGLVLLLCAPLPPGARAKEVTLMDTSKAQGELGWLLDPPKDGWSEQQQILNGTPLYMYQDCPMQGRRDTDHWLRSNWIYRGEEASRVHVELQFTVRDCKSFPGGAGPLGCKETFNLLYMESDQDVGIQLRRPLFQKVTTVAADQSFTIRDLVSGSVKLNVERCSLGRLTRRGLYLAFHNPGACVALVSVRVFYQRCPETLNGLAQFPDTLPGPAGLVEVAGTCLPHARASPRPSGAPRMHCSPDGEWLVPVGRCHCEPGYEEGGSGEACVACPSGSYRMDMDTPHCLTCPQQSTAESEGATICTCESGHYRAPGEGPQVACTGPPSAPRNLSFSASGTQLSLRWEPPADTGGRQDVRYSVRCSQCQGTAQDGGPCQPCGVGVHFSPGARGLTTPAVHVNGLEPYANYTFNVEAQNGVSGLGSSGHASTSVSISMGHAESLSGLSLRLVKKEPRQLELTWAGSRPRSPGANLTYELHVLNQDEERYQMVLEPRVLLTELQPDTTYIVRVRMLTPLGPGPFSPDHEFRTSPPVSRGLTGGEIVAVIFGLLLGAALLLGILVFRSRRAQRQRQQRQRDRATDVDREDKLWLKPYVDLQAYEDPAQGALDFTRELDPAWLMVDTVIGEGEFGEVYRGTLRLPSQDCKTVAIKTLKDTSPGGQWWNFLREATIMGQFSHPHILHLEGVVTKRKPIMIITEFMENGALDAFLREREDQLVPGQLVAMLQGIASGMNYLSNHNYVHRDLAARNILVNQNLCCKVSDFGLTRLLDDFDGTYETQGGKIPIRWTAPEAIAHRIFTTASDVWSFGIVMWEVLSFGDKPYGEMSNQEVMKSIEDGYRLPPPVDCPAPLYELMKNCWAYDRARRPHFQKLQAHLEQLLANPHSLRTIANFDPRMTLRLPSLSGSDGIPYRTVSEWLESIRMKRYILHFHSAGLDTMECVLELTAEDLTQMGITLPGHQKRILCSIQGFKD

[5] = test system: Mast/stem cell growth factor receptor Kit (Homo sapiens), P10721 [V559D,V654A]; conditions: Compound concentration 100.0 nM
[6] = target: Mitogen-activated protein kinase kinase kinase 7 (Homo sapiens) (UniProt O43318); conditions: Compound concentration 100.0 nM
[7] = target: Serine/threonine-protein kinase D1 (Homo sapiens) (UniProt Q15139); conditions: Compound concentration 100.0 nM
[8] = target: Serine/threonine-protein kinase NLK (Homo sapiens) (UniProt Q9UBE8); conditions: Compound concentration 100.0 nM
[9] = target: Ribosomal protein S6 kinase alpha-3 (Homo sapiens) (UniProt P51812); conditions: Compound concentration 100.0 nM
Ribosomal protein S6 kinase alpha-3 (Homo sapiens), sequence (P51812 whole entry): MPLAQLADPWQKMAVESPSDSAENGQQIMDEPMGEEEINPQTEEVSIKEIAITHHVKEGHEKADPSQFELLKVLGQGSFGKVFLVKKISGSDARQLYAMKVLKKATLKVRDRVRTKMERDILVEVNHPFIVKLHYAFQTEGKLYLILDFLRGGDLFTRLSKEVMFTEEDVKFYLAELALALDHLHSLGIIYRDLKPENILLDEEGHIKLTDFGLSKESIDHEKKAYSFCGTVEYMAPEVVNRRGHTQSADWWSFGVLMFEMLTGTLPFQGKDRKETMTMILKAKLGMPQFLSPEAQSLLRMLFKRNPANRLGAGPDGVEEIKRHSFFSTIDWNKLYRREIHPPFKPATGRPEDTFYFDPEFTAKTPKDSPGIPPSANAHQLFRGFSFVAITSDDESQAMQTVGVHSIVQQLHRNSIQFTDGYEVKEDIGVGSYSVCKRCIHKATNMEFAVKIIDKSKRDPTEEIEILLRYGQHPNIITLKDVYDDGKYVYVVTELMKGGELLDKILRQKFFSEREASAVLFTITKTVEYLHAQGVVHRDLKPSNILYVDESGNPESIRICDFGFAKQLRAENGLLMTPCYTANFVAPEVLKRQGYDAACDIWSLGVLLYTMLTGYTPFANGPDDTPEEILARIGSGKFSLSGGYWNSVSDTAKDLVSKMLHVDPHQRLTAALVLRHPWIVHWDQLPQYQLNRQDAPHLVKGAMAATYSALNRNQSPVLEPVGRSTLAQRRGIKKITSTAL

[10] = target: Alpha-2C adrenergic receptor (Homo sapiens) (UniProt P18825); conditions: Compound concentration 10.0 uM
[11] = target: Proto-oncogene tyrosine-protein kinase Src (Homo sapiens, UniProt P12931); conditions: Compound concentration 100.0 nM
Proto-oncogene tyrosine-protein kinase Src, sequence (P12931 2-536 limits assumed): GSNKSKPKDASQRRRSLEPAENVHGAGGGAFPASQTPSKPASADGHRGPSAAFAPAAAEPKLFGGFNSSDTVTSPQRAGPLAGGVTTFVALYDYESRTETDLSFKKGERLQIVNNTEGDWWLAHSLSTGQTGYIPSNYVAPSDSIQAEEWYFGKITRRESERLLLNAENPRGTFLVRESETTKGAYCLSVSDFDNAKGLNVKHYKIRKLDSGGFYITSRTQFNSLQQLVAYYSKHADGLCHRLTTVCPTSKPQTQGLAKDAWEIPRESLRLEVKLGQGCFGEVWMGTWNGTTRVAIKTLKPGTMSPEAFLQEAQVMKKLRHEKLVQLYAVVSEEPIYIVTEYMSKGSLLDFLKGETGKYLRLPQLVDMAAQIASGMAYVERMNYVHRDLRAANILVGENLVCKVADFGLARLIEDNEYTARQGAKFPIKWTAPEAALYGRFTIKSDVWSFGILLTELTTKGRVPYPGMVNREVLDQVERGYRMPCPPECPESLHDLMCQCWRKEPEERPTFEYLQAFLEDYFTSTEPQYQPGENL

[12] = test system: Mast/stem cell growth factor receptor Kit (Homo sapiens), P10721 [L576P]; conditions: Compound concentration 100.0 nM
[13] = target: MAP kinase-activated protein kinase 2 (Homo sapiens) (UniProt P49137); conditions: Compound concentration 100.0 nM
MAP kinase-activated protein kinase 2 (Homo sapiens), sequence (P49137 whole entry, looked up): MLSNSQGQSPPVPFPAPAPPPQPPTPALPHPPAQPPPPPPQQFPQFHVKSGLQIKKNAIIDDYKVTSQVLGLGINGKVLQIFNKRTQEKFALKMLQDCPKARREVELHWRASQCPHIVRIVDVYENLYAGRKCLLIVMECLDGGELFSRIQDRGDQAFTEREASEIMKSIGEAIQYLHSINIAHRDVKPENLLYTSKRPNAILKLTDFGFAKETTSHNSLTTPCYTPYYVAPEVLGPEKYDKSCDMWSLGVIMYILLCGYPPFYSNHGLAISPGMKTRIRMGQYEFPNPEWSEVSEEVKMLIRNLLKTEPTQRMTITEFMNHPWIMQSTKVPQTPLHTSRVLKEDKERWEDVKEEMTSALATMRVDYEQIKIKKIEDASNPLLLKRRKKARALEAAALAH

[14] = test system: Receptor-type tyrosine-protein kinase FLT3 (Homo sapiens), P36888 [D835V]; conditions: Compound concentration 100.0 nM
[15] = target: Serine/threonine-protein kinase 25 (Homo sapiens) (UniProt O00506); conditions: Compound concentration 100.0 nM
[16] = target: Dual specificity tyrosine-phosphorylation-regulated kinase 2 (Homo sapiens) (UniProt Q92630); conditions: Compound concentration 100.0 nM
Dual specificity tyrosine-phosphorylation-regulated kinase 2 (Homo sapiens), sequence (Q92630 whole entry): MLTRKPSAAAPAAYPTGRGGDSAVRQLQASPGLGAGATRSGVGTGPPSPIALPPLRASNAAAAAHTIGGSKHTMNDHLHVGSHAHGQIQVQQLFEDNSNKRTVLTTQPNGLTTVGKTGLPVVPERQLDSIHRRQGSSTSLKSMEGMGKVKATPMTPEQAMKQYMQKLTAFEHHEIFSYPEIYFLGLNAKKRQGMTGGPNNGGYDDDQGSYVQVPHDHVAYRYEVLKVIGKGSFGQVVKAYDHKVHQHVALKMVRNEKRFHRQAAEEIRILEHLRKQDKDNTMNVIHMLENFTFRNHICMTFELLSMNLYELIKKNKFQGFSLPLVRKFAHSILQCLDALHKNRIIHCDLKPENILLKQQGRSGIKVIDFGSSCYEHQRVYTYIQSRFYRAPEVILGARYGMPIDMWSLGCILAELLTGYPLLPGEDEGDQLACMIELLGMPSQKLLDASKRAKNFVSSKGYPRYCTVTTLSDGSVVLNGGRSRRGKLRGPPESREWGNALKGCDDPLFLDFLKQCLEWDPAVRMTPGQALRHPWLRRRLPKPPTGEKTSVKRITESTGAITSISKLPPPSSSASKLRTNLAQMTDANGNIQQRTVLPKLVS

[17] = target: Myosin-IIIa (Homo sapiens) (UniProt Q8NEV4); conditions: Compound concentration 100.0 nM
[18] = target: Phosphatidylinositol 4-kinase beta (Homo sapiens) (UniProt Q9UBF8); conditions: Compound concentration 100.0 nM
[19] = target: Cyclin-dependent kinase 11A (Homo sapiens) (UniProt Q9UQ88); conditions: Compound concentration 100.0 nM
[20] = target: Aurora kinase B (Homo sapiens) (UniProt Q96GD4); conditions: Compound concentration 100.0 nM
[21] = target: Histamine H3 receptor (Homo sapiens) (UniProt Q9Y5N1); conditions: Compound concentration 10.0 uM
[22] = target: Calcium/calmodulin-dependent protein kinase type II subunit delta (Homo sapiens) (UniProt Q13557); conditions: Compound concentration 100.0 nM
[23] = target: LIM domain kinase 2 (Homo sapiens) (UniProt P53671); conditions: Compound concentration 100.0 nM
[24] = target: Serine/threonine-protein kinase PAK 2 (Homo sapiens) (UniProt Q13177); conditions: Compound concentration 100.0 nM
[25] = target: Phosphorylase b kinase gamma catalytic chain, skeletal muscle/heart isoform (Homo sapiens) (UniProt Q16816); conditions: Compound concentration 100.0 nM
[26] = target: Serine/threonine-protein kinase 4 (Homo sapiens) (UniProt Q13043); conditions: Compound concentration 100.0 nM
[27] = target: Receptor tyrosine-protein kinase erbB-4 (Homo sapiens) (UniProt Q15303); conditions: Compound concentration 100.0 nM
Receptor tyrosine-protein kinase erbB-4 (Homo sapiens), sequence (Q15303 whole entry): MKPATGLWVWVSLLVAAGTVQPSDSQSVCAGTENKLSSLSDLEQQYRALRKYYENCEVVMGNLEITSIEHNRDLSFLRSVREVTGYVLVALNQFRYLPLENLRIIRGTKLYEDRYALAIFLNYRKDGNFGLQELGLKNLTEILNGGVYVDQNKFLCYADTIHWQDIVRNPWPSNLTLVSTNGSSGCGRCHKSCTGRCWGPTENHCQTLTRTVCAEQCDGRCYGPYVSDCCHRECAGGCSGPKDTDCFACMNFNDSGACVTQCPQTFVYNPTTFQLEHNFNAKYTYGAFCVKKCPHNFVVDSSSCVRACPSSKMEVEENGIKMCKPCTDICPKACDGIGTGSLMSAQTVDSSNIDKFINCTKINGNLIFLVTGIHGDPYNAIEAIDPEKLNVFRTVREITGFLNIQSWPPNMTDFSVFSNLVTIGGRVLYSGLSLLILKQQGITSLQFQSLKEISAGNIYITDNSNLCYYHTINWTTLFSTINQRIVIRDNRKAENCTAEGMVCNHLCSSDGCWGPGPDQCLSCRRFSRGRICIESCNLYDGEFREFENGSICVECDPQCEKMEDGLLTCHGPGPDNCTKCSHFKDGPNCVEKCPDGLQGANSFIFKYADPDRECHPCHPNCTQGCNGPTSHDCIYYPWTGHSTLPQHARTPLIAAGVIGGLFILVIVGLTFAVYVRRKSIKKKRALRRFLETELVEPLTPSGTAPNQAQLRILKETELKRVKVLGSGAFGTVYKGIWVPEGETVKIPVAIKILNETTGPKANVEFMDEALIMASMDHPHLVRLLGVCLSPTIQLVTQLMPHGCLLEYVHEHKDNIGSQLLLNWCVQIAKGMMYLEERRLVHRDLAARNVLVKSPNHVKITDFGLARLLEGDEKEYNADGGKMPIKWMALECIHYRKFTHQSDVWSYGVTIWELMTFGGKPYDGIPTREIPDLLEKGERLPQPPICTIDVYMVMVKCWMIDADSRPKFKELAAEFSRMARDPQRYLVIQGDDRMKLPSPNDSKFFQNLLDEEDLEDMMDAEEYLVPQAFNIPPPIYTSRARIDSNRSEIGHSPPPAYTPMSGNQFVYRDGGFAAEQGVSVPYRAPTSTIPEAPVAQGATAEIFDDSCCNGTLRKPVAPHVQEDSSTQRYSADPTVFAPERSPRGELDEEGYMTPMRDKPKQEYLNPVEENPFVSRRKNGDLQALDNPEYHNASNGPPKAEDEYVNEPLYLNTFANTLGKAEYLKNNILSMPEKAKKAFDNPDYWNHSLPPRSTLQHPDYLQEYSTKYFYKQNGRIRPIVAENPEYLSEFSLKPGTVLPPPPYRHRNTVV

[28] = target: Serine/threonine-protein kinase DCLK3 (Homo sapiens) (UniProt Q9C098); conditions: Compound concentration 100.0 nM
[29] = target: Death-associated protein kinase 1 (Homo sapiens) (UniProt P53355); conditions: Compound concentration 100.0 nM
[30] = target: Cyclin-dependent kinase 17 (Homo sapiens) (UniProt Q00537); conditions: Compound concentration 100.0 nM
[31] = target: Cyclin-dependent kinase 2 homolog (Plasmodium falciparum (isolate 3D7)) (UniProt P61075); conditions: Compound concentration 100.0 nM
[32] = test system: Proto-oncogene tyrosine-protein kinase receptor Ret (Homo sapiens), P07949 [V804L]; conditions: Compound concentration 100.0 nM
[33] = target: Uncharacterized serine/threonine-protein kinase SBK3 (Homo sapiens) (UniProt P0C264); conditions: Compound concentration 100.0 nM
Uncharacterized serine/threonine-protein kinase SBK3 (Homo sapiens), sequence (P0C264 whole entry): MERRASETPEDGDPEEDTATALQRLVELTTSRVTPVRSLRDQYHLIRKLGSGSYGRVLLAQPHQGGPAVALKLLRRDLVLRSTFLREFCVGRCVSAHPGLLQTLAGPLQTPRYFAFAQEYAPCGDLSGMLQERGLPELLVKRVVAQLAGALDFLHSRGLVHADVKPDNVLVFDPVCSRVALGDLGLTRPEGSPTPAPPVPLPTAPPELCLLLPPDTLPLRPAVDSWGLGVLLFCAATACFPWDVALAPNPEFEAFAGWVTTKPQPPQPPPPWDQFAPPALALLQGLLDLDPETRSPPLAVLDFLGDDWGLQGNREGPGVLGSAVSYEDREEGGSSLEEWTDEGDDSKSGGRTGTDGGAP

[34] = target: Serine/threonine-protein kinase PAK 1 (Homo sapiens) (UniProt Q13153); conditions: Compound concentration 100.0 nM
[35] = target: Transient receptor potential cation channel subfamily M member 6 (Homo sapiens) (UniProt Q9BX84); conditions: Compound concentration 100.0 nM
[36] = test system: Tyrosine-protein kinase ABL1 (Homo sapiens), P00519 [E255K]; conditions: Compound concentration 100.0 nM
[37] = target: Mitogen-activated protein kinase 6 (Homo sapiens) (UniProt Q16659); conditions: Compound concentration 100.0 nM
[38] = test system: Epidermal growth factor receptor (Homo sapiens), P00533 [L861Q]; conditions: Compound concentration 100.0 nM
[39] = target: Serine/threonine-protein kinase N1 (Homo sapiens) (UniProt Q16512); conditions: Compound concentration 100.0 nM
[40] = target: Calcium/calmodulin-dependent protein kinase type 1D (Homo sapiens) (UniProt Q8IU85); conditions: Compound concentration 100.0 nM
[41] = target: STE20-like serine/threonine-protein kinase (Homo sapiens) (UniProt Q9H2G2); conditions: Compound concentration 100.0 nM
[42] = target: Mitogen-activated protein kinase kinase kinase 6 (Homo sapiens) (UniProt O95382); conditions: Compound concentration 100.0 nM
[43] = test system: ALK tyrosine kinase receptor (Homo sapiens), Q9UM73 [L1196M]; conditions: Compound concentration 100.0 nM
[44] = target: Serine/threonine-protein kinase PLK1 (Homo sapiens) (UniProt P53350); conditions: Compound concentration 100.0 nM
[45] = target: Phosphatidylinositol 3-kinase catalytic subunit type 3 (Homo sapiens) (UniProt Q8NEB9); conditions: Compound concentration 100.0 nM

Work on `Cc1ccc(-c2cnc([C@@]3(O)CC[C@H](C(=O)O)C(C)(C)C3)s2)cc1Nc1cccc(C(F)(F)F)n1` [MRL-SYKi-NC] yielded an inhibition [1] of 27.4%, a residual activity [2] of 96.9% and a residual activity [3] of 73.1%. It also gave a residual activity [4] of 100%, a residual activity [5] of 100% and a residual activity [6] of 92.6%. For the same compound, the residual activity [7] was 90.1%, the residual activity [8] was 100% and the residual activity [9] was 93%. For the same compound, the inhibition [10] was 11.8%, the residual activity [11] was 100% and the residual activity [12] was 100%. It also gave a residual activity [13] of 97.9%, a residual activity [14] of 100% and a residual activity [15] of 72.5%. The residual activity [16] was 82.4%, the residual activity [17] was 70.1% and the residual activity [18] was 81.2%. For the same compound, the residual activity [19] was 100%, the residual activity [20] was 93.1% and the inhibition [21] was 46.4%. For the same compound, the residual activity [22] was 87.2%, the residual activity [23] was 100% and the residual activity [24] was 89.5%. The residual activity [25] was 100%, the residual activity [26] was 69.1% and the residual activity [27] was 81.2%. For the same compound, the residual activity [28] was 76.2%, the residual activity [29] was 100% and the residual activity [30] was 100%. The residual activity [31] was 33%, the residual activity [32] was 100% and the residual activity [33] was 100%. For the same compound, the residual activity [34] was 94.5%, the residual activity [35] was 77.1% and the residual activity [36] was 80.8%. The residual activity [37] was 100%, the residual activity [38] was 98.5% and the residual activity [39] was 100%. It also gave a residual activity [40] of 89.6%, a residual activity [41] of 93.6% and a residual activity [42] of 100%. The residual activity [43] was 100%, the residual activity [44] was 20.2% and the residual activity [45] was 67.2%.

For `Cc1cc(Nc2nccc(C)n2)cc(-c2cnc([C@@]3(O)CC[C@H](C(=O)O)C(C)(C)C3)s2)c1` [MRL-SYKi], the inhibition [1] was 33.5%, the residual activity [2] was 92.5% and the residual activity [3] was 100%. It also gave a residual activity [4] of 100%, a residual activity [5] of 100% and a residual activity [6] of 100%. It also gave a residual activity [7] of 100%, a residual activity [8] of 73% and a residual activity [9] of 87.6%. For the same compound, the inhibition [10] was -3.94%, the residual activity [11] was 53.7% and the residual activity [12] was 85.1%. It also gave a residual activity [13] of 100%, a residual activity [14] of 75.6% and a residual activity [15] of 100%. It also gave a residual activity [16] of 100%, a residual activity [17] of 100% and a residual activity [18] of 88.6%. The residual activity [19] was 86.1%, the residual activity [20] was 89% and the inhibition [21] was 50.4%. It also gave a residual activity [22] of 84.6%, a residual activity [23] of 87.2% and a residual activity [24] of 100%. For the same compound, the residual activity [25] was 100%, the residual activity [26] was 100% and the residual activity [27] was 81.9%. The residual activity [28] was 97.3%, the residual activity [29] was 100% and the residual activity [30] was 73.2%. It also gave a residual activity [31] of 100%, a residual activity [32] of 87% and a residual activity [33] of 100%. For the same compound, the residual activity [34] was 100%, the residual activity [35] was 94.8% and the residual activity [36] was 55.1%. For the same compound, the residual activity [37] was 97.9%, the residual activity [38] was 100% and the residual activity [39] was 96.9%. The residual activity [40] was 97.1%, the residual activity [41] was 96.4% and the residual activity [42] was 69.5%. The residual activity [43] was 100%, the residual activity [44] was 100% and the residual activity [45] was 99.6%.
